The structures appear in SMILES notation.

The target in data set [1] is T1, Caspase-1 (Homo sapiens, UniProt P29466).
T1 sequence (P29466 120-297 limits assumed): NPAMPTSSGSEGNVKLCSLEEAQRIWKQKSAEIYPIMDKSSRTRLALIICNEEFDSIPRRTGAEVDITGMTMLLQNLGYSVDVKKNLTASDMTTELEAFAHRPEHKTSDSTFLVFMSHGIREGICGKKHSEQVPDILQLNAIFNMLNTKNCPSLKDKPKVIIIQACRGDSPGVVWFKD
T1 sequence (P29466 317-404 limits assumed): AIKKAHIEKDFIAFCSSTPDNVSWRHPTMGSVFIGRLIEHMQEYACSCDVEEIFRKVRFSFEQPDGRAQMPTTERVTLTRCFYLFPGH
Nature of the data set: In vitro cleavage of the probe by caspase-1 (fluorescence / FRET change). It counts as biochemical. The note with it: for in vitro cleavage: 10 µM probe, 10 nM caspase-1, E/S ratio 1/1000, 25 cycles: 1 min. intervals. As to the method: The E/S ratio was 1/1000, 25 cycles: 1 min. intervals. • Figure 5: Cellular assay with Probe III; PMA=Phorbol-12-myristate-13-acetate; LPS=Lipopolysaccharide; zVAD=carbobenzoxy-valyl-alanyl-asparty-[O-methyl]-fluoromethylketone • Figure 6A-E: Kinetic characterization of probes II, VI, V, IV, and VII. • Figure 7: Cell permeability assay.

The subject of data set [2] is THP-1 cells.
Experimental: THP-1 cells were differentiated with PMA in 4-well glass chambers for 48 hours. 2 hours before the assay zVAD-fmk was added to negative controls. Probes were then added to the cells in 5 µM final concentration and the probe uptake was studied by fluorescence microscopy.
Data set [3] can be described thus: Cellular toxicity (summary statement). It counts as cell-based. The note with it: summary of biological assays.
In data set [4] the target is T1, Caspase-1. In words: Specificity of the probe towards caspase-1. It is filed as biochemical. The settings on record: summary of biological assays. As to the method: The E/S ratio was 1/1000, 25 cycles: 1 min. intervals. • Figures 4A-C: show the in vitro cleavage of 10 µM probe VI in the presence of 10 nM caspase-1. […] The E/S ratio was 1/1000, 25 cycles: 1 min. intervals. • Figure 5: Cellular assay with Probe III; PMA=Phorbol-12-myristate-13-acetate; LPS=Lipopolysaccharide; zVAD=carbobenzoxy-valyl-alanyl-asparty-[O-methyl]-fluoromethylketone • Figure 6A-E: Kinetic characterization of probes II, VI, V, IV, and VII. • Figure 7: Cell permeability assay.

As for `CCN(CC)c1ccc2cc(C(=O)NNC(=O)[C@H](CC(=O)O)NC(=O)[C@@H]3CCCN4C(=O)CC[C@H](NC(=O)c5cc6ccc(OC)cc6oc5=O)C(=O)N34)c(=O)oc2c1` [Probe III], the in vitro cleavage entry in data set [1] is given as “cleaved very efficiently”. For the same compound, in data set [1] (Figure 1A, cleavage by caspase-1), the FRET change entry is “about 10 fold”. For the same compound, the “change of fluorescence intensity in response to cleavage by caspase-1” value in data set [1] (Figure 1A, dependence on enzyme dose) is reported as “enzyme dose-dependent manner”. Further, the “FRET change (concentration dependence)” value in data set [1] (summary of biological assays) was “- Concentration dependent FRET change”. Also, the Cell permeability entry in data set [2] was “- Cell permeability”. Moreover, the toxicity result in data set [3] is listed as “- No sign of toxicity”. Further, the specificity entry in data set [4] is given as “- Superiorly specific”.
`CCCCCCCCN(CCCCCCCC)c1ccc2c(COC(=O)CCCC(=O)NNC(=O)[C@H](CC(=O)O)NC(=O)[C@@H]3CCCN4C(=O)CC[C@H](NC(=O)c5cc6ccc(OC)cc6oc5=O)C(=O)N34)cc(=O)oc2c1` [Probe I]: the “Cellular entry (time)” value in data set [2] is on record as “- Cellular entry within 5-7 min”.
In the case of `CCN(CC)c1ccc2cc(C(=O)NCC(=O)NCCCCCCCCNC(=O)[C@H](CC(=O)O)NC(=O)[C@@H]3CCCN4C(=O)CC[C@H](NC(=O)c5cc6ccc(OC)cc6oc5=O)C(=O)N34)c(=O)oc2c1` [Probe VI], in data set [1], the in vitro cleavage entry is “cleaved very efficiently”.

Values taken from patent publication EP2848696A1, “Caspase-1 imaging probes” (Sanofi-Aventis Deutschland GmbH, priority 2013, dated 2015).
